Test results: patent US7598397B2, “Sulfonamide peri-substituted bicyclics for occlusive artery disease” (deCODE genetics ehf, priority 2004, dated 2009)

Each compound was assayed against T1, prostanoid EP3 receptors (Homo sapiens, UniProt P43115) (assay: binding on prostanoid EP3 receptors (method of Abramovitz et al.)). Conditions: read-out: Activity (EP3 receptor binding, IC50 class).
T1 sequence (P43115 1-390): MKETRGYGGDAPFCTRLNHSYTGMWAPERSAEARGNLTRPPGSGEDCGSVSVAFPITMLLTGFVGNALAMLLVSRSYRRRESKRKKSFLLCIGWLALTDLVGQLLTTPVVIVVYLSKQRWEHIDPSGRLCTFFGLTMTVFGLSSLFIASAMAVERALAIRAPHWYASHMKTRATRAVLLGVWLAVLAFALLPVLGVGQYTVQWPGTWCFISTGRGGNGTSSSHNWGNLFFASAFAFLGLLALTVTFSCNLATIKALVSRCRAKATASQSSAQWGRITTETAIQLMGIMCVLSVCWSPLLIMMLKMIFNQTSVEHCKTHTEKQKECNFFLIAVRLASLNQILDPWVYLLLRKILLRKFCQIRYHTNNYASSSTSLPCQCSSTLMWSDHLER
Description: The compounds of the invention were assayed for their binding on prostanoid EP3 receptors according to the method of Abramovitz et al. [Bioch. Biophys.

| SMILES | IC50 [nM] |
| --- | --- |
| O=C(C=Cc1cccc2ccn(Cc3ccc4ccccc4c3)c12)NS(=O)(=O)c1cccs1 [Compound P001] | < 1000 |
| O=C(/C=C/c1cccc2c1N(Cc1ccc3ccccc3c1)CC2)NS(=O)(=O)c1cccs1 [Compound P003] | < 1000 |
| O=C(C=Cc1cccc2ccn(C(=O)c3ccc4ccccc4c3)c12)NS(=O)(=O)c1cccs1 [Compound P005] | < 1000 |
| Cc1ccc(C)c(Cn2ccc3cccc(C=CC(=O)NS(=O)(=O)c4cccs4)c32)c1 [Compound P008] | < 1000 |
| O=C(Cn1c(=O)ccc2cccc(OCc3ccc4ccccc4c3)c21)NS(=O)(=O)c1cccs1 [Compound P012] | > 10000 |
| O=C(CN1CCCc2cccc(OCc3ccc4ccccc4c3)c21)NS(=O)(=O)c1cccs1 [Compound P015] | 1000 to 10000 |
| O=C(C=Cc1cccc2ccn(Cc3ccc4ccccc4c3)c12)NS(=O)(=O)C(F)(F)F [Compound P016] | < 1000 |
| O=C(COc1cccc2c1N(Cc1ccc3ccccc3c1)C(=O)CO2)NS(=O)(=O)c1cccs1 [Compound P018] | < 1000 |
| O=C(Nc1cccc2c1N(Cc1ccc3ccccc3c1)C(=O)CO2)C(=O)NS(=O)(=O)c1cccs1 [Compound P019, N-(4-Naphthalen-2-ylmethyl-3-oxo-3,4-dihydro-2H-benzo[1,4]oxazin-5-yl)-2-oxo-2-(thiophen-2-sulfonylamino)-acetamide] | 1000 to 10000 |
| Cc1ccc(CN2C(=O)COc3cccc(OCC(=O)NS(=O)(=O)c4cccs4)c32)cc1C [Compound P020] | 1000 to 10000 |
| Cc1ccc(C)c(CN2C(=O)COc3cccc(OCC(=O)NS(=O)(=O)c4cccs4)c32)c1 [Compound P021] | 1000 to 10000 |
| O=C(COc1cccc2c1N(Cc1ccccc1)C(=O)CO2)NS(=O)(=O)c1cccs1 [Compound P022] | 1000 to 10000 |
| Cc1ccc(CN2C(=O)COc3cccc(OCC(=O)NS(=O)(=O)c4cccs4)c32)cc1 [Compound P023] | 1000 to 10000 |
| O=C(COc1cccc2c1N(Cc1ccc(F)cc1)C(=O)CO2)NS(=O)(=O)c1cccs1 [Compound P024] | > 10000 |
| O=C(COc1cccc2c1N(Cc1ccc(Cl)cc1)C(=O)CO2)NS(=O)(=O)c1cccs1 [Compound P025] | > 10000 |
| O=C(COc1cccc2c1N(Cc1ccc(OC(F)F)cc1)C(=O)CO2)NS(=O)(=O)c1cccs1 [Compound P026] | 1000 to 10000 |
| O=C(COc1cccc2c1N(Cc1ccc(OC(F)(F)F)cc1)C(=O)CO2)NS(=O)(=O)c1cccs1 [Compound P027] | 1000 to 10000 |
| COc1cccc(CN2C(=O)COc3cccc(OCC(=O)NS(=O)(=O)c4cccs4)c32)c1 [Compound P030] | 1000 to 10000 |
| O=C(COc1cccc2c1N(Cc1ccccc1C(F)(F)F)C(=O)CO2)NS(=O)(=O)c1cccs1 [Compound P031] | 1000 to 10000 |
| O=C(C=Cc1cnn2ccn(Cc3ccc4ccccc4c3)c12)NS(=O)(=O)c1cccs1 [Compound P034] | < 1000 |
| Cc1nc2cccc(OCC(=O)NS(=O)(=O)c3cccs3)c2n1Cc1ccc2ccccc2c1 [Compound P037, Thiophen-2-sulfonic acid [2-(2-methyl-3-naphthalen-2-ylmethyl-3H-benzoimidazol-4-yloxy)-acetyl] amide] | 1000 to 10000 |
| Cc1ccc(S(=O)(=O)NC(=O)OCc2cccc3ccn(Cc4ccc5ccccc5c4)c23)cc1 [Compound P038] | < 1000 |

| SMILES | IC50 [nM] |
| --- | --- |
| O=C(COc1cccc2c1N(Cc1ccc(Cl)c(Cl)c1)C(=O)CO2)NS(=O)(=O)c1cccs1 [Compound P039] | < 1000 |
| O=C(COc1cccc2c1N(Cc1ccc(Cl)cc1Cl)C(=O)CO2)NS(=O)(=O)c1cccs1 [Compound P040] | < 1000 |
| COc1cc(CN2C(=O)COc3cccc(OCC(=O)NS(=O)(=O)c4cccs4)c32)cc(OC)c1 [Compound P041] | 1000 to 10000 |
| O=C(COc1cccc2c1N(Cc1ccc3nonc3c1)C(=O)CO2)NS(=O)(=O)c1cccs1 [Compound P042] | 1000 to 10000 |
| CCOP(=O)(NC(=O)OCc1cccc2ccn(Cc3ccc4ccccc4c3)c12)OCC [Compound P044] | 1000 to 10000 |
| O=C(COc1cccc2oc(=O)n(Cc3ccc4ccccc4c3)c12)NS(=O)(=O)c1cccs1 [Compound P046] | < 1000 |
| COc1ccc(Br)cc1S(=O)(=O)NC(=O)COc1cccc2oc(=O)n(Cc3ccc4ccccc4c3)c12 [Compound P047] | < 1000 |
| O=C(COc1cccc2oc(=O)n(Cc3ccc4ccccc4c3)c12)NS(=O)(=O)C(F)(F)F [Compound P048] | 1000 to 10000 |
| O=C(CNc1cccc2c1N(Cc1ccc3ccccc3c1)C(=O)CO2)NS(=O)(=O)c1cccs1 [Compound P049, Thiophen-2-sulfonic acid[2-(4-naphthalen-2-ylmethyl-3-oxo-3,4-dihydro-2H-benzo[1,4]oxazin-5-ylamino)-acetyl]-amide] | 1000 to 10000 |
| O=C(COc1cccc2oc(=O)n(Cc3ccc4c(c3)OCO4)c12)NS(=O)(=O)c1cccs1 [Compound P050] | 1000 to 10000 |
| O=C(COc1cccc2oc(=O)n(Cc3ccc(Cl)c(Cl)c3)c12)NS(=O)(=O)c1cccs1 [Compound P051] | < 1000 |
| O=C(COc1cccc2oc(=O)n(Cc3ccc(Cl)cc3Cl)c12)NS(=O)(=O)c1cccs1 [Compound P052] | < 1000 |
| Cc1ccc(C)c(Cn2c(=O)oc3cccc(OCC(=O)NS(=O)(=O)c4cccs4)c32)c1 [Compound P053] | 1000 to 10000 |
| COc1c(C)cnc(Cn2ccc3cccc(C=CC(=O)NS(=O)(=O)c4cccs4)c32)c1C [Compound P055] | 1000 to 10000 |
| Cc1cn(Cc2ccc3ccccc3c2)c2c(/C=C/C(=O)NS(=O)(=O)c3cccs3)cccc12 [Compound P057] | < 1000 |
| CC1C(=O)N(Cc2ccc(Cl)cc2Cl)c2c(C=CC(=O)NS(=O)(=O)c3cccs3)cccc21 (centres unmarked) [Compound P058] | < 1000 |
| CC1C(=O)N(Cc2ccc3ccccc3c2)c2c(C=CC(=O)NS(=O)(=O)c3cccs3)cccc21 (centres unmarked) [Compound P059] | < 1000 |
| O=C(C=Cc1cc(F)cc2ccn(Cc3ccc4ccccc4c3)c12)NS(=O)(=O)c1cccs1 [Compound P060] | < 1000 |
| O=C(C=Cc1cc(F)cc2ccn(Cc3ccc(Cl)cc3Cl)c12)NS(=O)(=O)c1cccs1 [Compound P061] | < 1000 |
| O=C(/C=C/c1cccc2c(CO)cn(Cc3ccc(Cl)cc3Cl)c12)NS(=O)(=O)c1cccs1 [Compound P062] | < 1000 |
| CC1C(=O)N(Cc2ccc(Cl)cc2Cl)c2c(C=CC(=O)NS(=O)(=O)c3cccs3)cc(F)cc21 (centres unmarked) [Compound P065] | < 1000 |
| CC1C(=O)N(Cc2ccc3ccccc3c2)c2c(C=CC(=O)NS(=O)(=O)c3cccs3)cc(F)cc21 (centres unmarked) [Compound P066] | < 1000 |

| SMILES | IC50 [nM] |
| --- | --- |
| O=Cc1cn(Cc2ccc(Cl)cc2Cl)c2c(C=CC(=O)NS(=O)(=O)c3cccs3)cccc12 [Compound P069] | < 1000 |
| COCc1cn(Cc2ccc(Cl)cc2Cl)c2c(C=CC(=O)NS(=O)(=O)c3cccs3)cccc12 [Compound P070] | < 1000 |
| Cc1cn(Cc2ccc(Cl)cc2Cl)c2c(CCC(=O)NS(=O)(=O)c3cc(Cl)c(Cl)s3)cccc12 [Compound P072] | < 1000 |
| Cc1cn(Cc2ccc3ccccc3c2)c2c(CCC(=O)NS(=O)(=O)c3cc(Cl)c(Cl)s3)cccc12 [Compound P073] | < 1000 |
| O=C(CCc1cccc2ccn(Cc3ccc4ccccc4c3)c12)NS(=O)(=O)c1cccs1 [Compound P074] | < 1000 |
| Cc1cn(Cc2ccc3ccccc3c2)c2c(/C=C/C(=O)N(C)S(=O)(=O)c3cc(Cl)c(Cl)s3)cc(F)cc12 [Compound P076] | < 1000 |
| Cc1cn(Cc2ccc(Cl)cc2Cl)c2c(C=CC(=O)NS(=O)(=O)c3cc(Cl)c(Cl)s3)cccc12 [Compound P079] | < 1000 |
| O=C(C=Cc1cccc2c1N(Cc1ccc3ccccc3c1)C(=O)C21OCCO1)NS(=O)(=O)c1cccs1 [Compound P083] | < 1000 |
| Cc1cn(Cc2ccccc2)c2c(/C=C/C(=O)NS(=O)(=O)c3cccs3)cccc12 [Compound P084] | < 1000 |
| CC(=O)c1cn(Cc2ccc(Cl)cc2Cl)c2c(C=CC(=O)NS(=O)(=O)c3cccs3)cccc12 [Compound P085] | < 1000 |
| Cc1cn(Cc2ccccc2Cl)c2c(/C=C/C(=O)NS(=O)(=O)c3cccs3)cccc12 [Compound P086] | < 1000 |
| Cc1cn(Cc2cc(F)cc(F)c2)c2c(/C=C/C(=O)NS(=O)(=O)c3cccs3)cccc12 [Compound P088] | < 1000 |
| Cc1cn(Cc2cc3c(cc2Cl)OCO3)c2c(/C=C/C(=O)NS(=O)(=O)c3cccs3)cccc12 [Compound P089] | < 1000 |
| Cc1cn(Cc2ccc(Cl)cc2Cl)c2c(C=CC(=O)NS(=O)(=O)c3ccccc3)cccc12 [Compound P090] | < 1000 |
| CC(C)c1cn(Cc2ccc(Cl)cc2Cl)c2c(CCC(=O)NS(=O)(=O)c3cccs3)cccc12 [Compound P091] | 1000 to 10000 |
| CC(C)C1C(=O)N(Cc2ccc(Cl)cc2Cl)c2c(CCC(=O)NS(=O)(=O)c3cccs3)cccc21 (centres unmarked) [Compound P093] | 1000 to 10000 |
| O=C(C=Cc1cccc2c1N(Cc1ccc3ccccc3c1)C(=O)C2=O)NS(=O)(=O)c1cccs1 [Compound P096] | < 1000 |
| O=C(CCc1cccc2c1N(Cc1ccc3ccccc3c1)C(=O)C21OCCO1)NS(=O)(=O)c1cccs1 [Compound P097] | < 1000 |
| Cc1cn(Cc2ccc3ccccc3n2)c2c(/C=C/C(=O)NS(=O)(=O)c3cccs3)cccc12 [Compound P099] | < 1000 |
| Cc1cn(Cc2ccc3c(c2)OCO3)c2c(/C=C/C(=O)NS(=O)(=O)c3cccs3)cccc12 [Compound P101] | < 1000 |
| Cc1cn(Cc2cc(F)cc3c2OCOC3)c2c(/C=C/C(=O)NS(=O)(=O)c3cccs3)cccc12 [Compound P102] | < 1000 |
